Source: patent publication US20210330713A1, “HUMAN HEPATOCYTES AND USES THEREOF” (ACCELERATED BIOSCIENCES CORP., priority 2014, published 2021)
Entries after “also recorded” stand apart in the source; their conditions may differ.

How the values were obtained:
[1] = cited from earlier work
FGF receptor (FGFR) = target: T1, FGF receptor (FGFR) (Homo sapiens, UniProt P11362); assay: FGFR inhibitor block of bFGF-induced PI3K by immunoblotting; format: cell-based; conditions: hTS cells, bFGF 10 ng/ml
T1 construct: endogenous in cells; host or cells: hTS cells (human trophoblast stem cells)
Description: (§1) For immunoblotting assay, cells were harvested into RIPA lysis solution (Millipore, Billerica, Mass.) supplemented with protease and phosphatase inhibitors (Roche). After electrophoresis of 30 μg lysates on polyacrylamide gels, electroblotting onto PDVF membranes (Millipore) was performed. After blocked by 5% non-fat milk in PBS at room temperature (1 hr), target protein was detected by using primary antibody. All membranes were incubated with chemiluminescent (Millipore) and imaging was captured by the ChemiDoc XRS system (Bio-RAD). Data were analyzed by AlphaEaseFC (version 4.0.0) system. For IP assay, Cell lysates of bFGF-treated hTS cells were collected. By incubation with protein G-agarose (Millipore) for 30 min, total protein (100 μg) was treated with specific primary antibody overnight listed in Table 1. After treating with protein G-agarose beads (2 hr), sample was washed three times with RIPA lysis buffer (Millipore), following by adding with protein loading dye and boiled for 5 min. […]
(§2) For immunoblotting assay, cells were harvested into RIPA lysis solution (Millipore, Billerica, Mass.) supplemented with protease and phosphatase inhibitors (Roche). […] After blocked by 5% non-fat milk in PBS at room temperature (1 hr), target protein was detected by using primary antibody. […] Data were analyzed by AlphaEaseFC (version 4.0.0) system. […]

CYP7A1 = conditions: hypercholesterolemic hamsters; cited from earlier work
hTS cells [2] = assay: Hepatocytic differentiation of hTS cells after DE stage; conditions: dexamethasone 0.1 μM and oncostatin M 10 ng/ml added at 8 hr of bFGF induction, 4 days
CYP3A4 = assay: Functional cytochrome p450 assay by qPCR, CYP3A4; conditions: hepatocyte-like cells, rifampicin 25 μM + itraconazole 25 μM, 24 hr
hTS cells [3] = assay: bFGF induction of DE differentiation in hTS cells, DE-associated markers over time; format: cell-based, human; conditions: bFGF 10 ng/ml
Description: For immunoblotting assay, cells were harvested into RIPA lysis solution (Millipore, Billerica, Mass.) supplemented with protease and phosphatase inhibitors (Roche). After electrophoresis of 30 μg lysates on polyacrylamide gels, electroblotting onto PDVF membranes (Millipore) was performed. After blocked by 5% non-fat milk in PBS at room temperature (1 hr), target protein was detected by using primary antibody. All membranes were incubated with chemiluminescent (Millipore) and imaging was captured by the ChemiDoc XRS system (Bio-RAD). Data were analyzed by AlphaEaseFC (version 4.0.0) system. For IP assay, Cell lysates of bFGF-treated hTS cells were collected. By incubation with protein G-agarose (Millipore) for 30 min, total protein (100 μg) was treated with specific primary antibody overnight listed in Table 1. After treating with protein G-agarose beads (2 hr), sample was washed three times with RIPA lysis buffer (Millipore), following by adding with protein loading dye and boiled for 5 min. The sample was resolved by 8% SDS-PAGE and subjected to immunoblotting analysis.
(§3) Slides with cell culture was fixed for 30 min at room temperature in 95% (v/v) ethanol, washed three times in PBS and incubated with blocking buffer PBS containing 0.1% (wt/v) Triton X-100 (Sigma) and 5% (v/v) normal donkey serum (Millipore) for 60 min. Primary and secondary antibodies were diluted in blocking buffer. Primary antibody was incubated. After incubation with specific primary antibody in PBS at 4° C. (24 hr) or room temperature (2 hr), appropriate fluorescein isothiocyante (FITC, Invitrogen) or ALEXA FLUOR® 488, 594, and 647 (Invitrogen) or Dylight 488 and 594 (BioLegend) conjugated secondary antibody was added at room temperature (1 hr). After DAPI staining of nucleus (5 min), incubation with secondary antibody (1 hr) at room temperature, and washes, sample was mounted with 50% glycerol. Images were captured by confocal laser scanning microscopy (LSM700; Zeiss Z1 or Olympus FluoView 1000 confocal laser scanning microscope) or TissueFAXS system (TissueQnostics GmbH, Vienna, Austria). Data were analyzed by TissueQuest software.
This study was approved by the Institutional Review Board on Human Subjects Research and Ethics Committees (KMUHIRB-20140071). […] For DE differentiation, cells were carried out by a conditioned a-MEM media containing 10% FBS, 2-mercaptoethanol (1 mM), nicotinamide (10 mM), and bFGF (10 ng/ml) for 8 hr, according to the empirical studies (data not shown). […] Cells were harvested at 4-7 days for assay as indicated. Determination of stage-specific differentiation of lineages depends on the hepatic cell-associated markers in liver development.
as §3, with “Briefly, slides” for “Slides”, “DYLIGHT®” for “Dylight”, “glycerol.” for “glycerol. Images were captured by confocal laser scanning microscopy (LSM700; Zeiss Z1 or Olympus FluoView 1000 confocal laser scanning microscope) or TissueFAXS system (TissueQnostics GmbH, Vienna, Austria). Data were analyzed by TissueQuest software.”

[4] = tested on: PI3K/AKT/CREB1 signaling pathway; assay: bFGF-induced PI3K/AKT/CREB1 signaling by immunoblotting; format: cell-based, human; conditions: bFGF 10 ng/ml, 4 hr induction, hTS cells
Description: as §1, §2

miR-124a = miR-124a expression in hTS cells by qPCR; format: cell-based, human; conditions: bFGF induction, DE stage
Text: U6 snRNA (RNU6B; Applied Biosystems) served as an endogenous control.

T1 sequence (P11362 22-822): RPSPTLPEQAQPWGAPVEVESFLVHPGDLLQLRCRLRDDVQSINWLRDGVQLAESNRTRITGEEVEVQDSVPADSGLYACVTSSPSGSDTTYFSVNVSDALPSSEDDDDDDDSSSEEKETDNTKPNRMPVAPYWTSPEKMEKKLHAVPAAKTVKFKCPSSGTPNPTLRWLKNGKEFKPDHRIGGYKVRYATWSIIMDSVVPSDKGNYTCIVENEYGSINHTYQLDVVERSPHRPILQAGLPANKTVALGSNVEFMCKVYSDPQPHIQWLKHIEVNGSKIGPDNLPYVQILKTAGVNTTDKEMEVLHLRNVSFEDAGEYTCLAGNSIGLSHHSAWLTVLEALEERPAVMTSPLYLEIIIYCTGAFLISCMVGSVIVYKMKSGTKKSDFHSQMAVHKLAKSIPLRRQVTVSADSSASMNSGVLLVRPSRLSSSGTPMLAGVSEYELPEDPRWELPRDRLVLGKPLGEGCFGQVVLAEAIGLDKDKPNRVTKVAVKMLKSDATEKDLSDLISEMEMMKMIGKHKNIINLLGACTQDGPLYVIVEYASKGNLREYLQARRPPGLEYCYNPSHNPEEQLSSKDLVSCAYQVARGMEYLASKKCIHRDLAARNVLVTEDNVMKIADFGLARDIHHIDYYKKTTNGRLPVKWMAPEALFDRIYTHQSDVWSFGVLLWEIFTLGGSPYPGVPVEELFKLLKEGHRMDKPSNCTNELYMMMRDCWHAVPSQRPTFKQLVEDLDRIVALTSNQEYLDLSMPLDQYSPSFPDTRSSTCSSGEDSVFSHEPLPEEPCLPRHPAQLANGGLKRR

For `ClC(Cl)(Cl)Cl` [CCl4, carbon tetrachloride], the half-live in blood [1] is listed as 24 h.

In the case of `COc1cc(OC)cc(-c2cc3cnc(N)nc3nc2NC(=O)NC(C)(C)C)c1` [PD166866], the “bFGF-induced activation of PI3K” value (FGF receptor (FGFR)) is reported as “block”.

In the case of `CC(=O)c1c(O)cc(O)cc1O` [THA], the “CYP7A1 activity and mRNA expression” value (CYP7A1) is listed as “promotes both CYP7A1 activity and mRNA expression” and the “plasma cholesterol and triglyceride” value (CYP7A1) is listed as “reduce both plasma cholesterol and triglyceride”.

With `C[C@@H]1C[C@H]2[C@@H]3CCC4=CC(=O)C=C[C@]4(C)[C@@]3(F)[C@@H](O)C[C@]2(C)[C@@]1(O)C(=O)CO` [dexamethasone] the “differentiation to hepatocyte-like cells expressing hepatic markers” value (hTS cells [2]) was “resulted in the differentiation of hepatocyte-like cells”.

With `CCC(C)n1ncn(-c2ccc(N3CCN(c4ccc(OCC5COC(Cn6cncn6)(c6ccc(Cl)cc6Cl)O5)cc4)CC3)cc2)c1=O` (stereo not shown) [itraconazole] the “inducer-induced CYP3A4 mRNA in response to inhibitor” value (CYP3A4) was “reduced”.

For “bFGF: basic fibroblast growth factor, used at 10 ng/ml to induce DE differentiation of hTS cells”, the “SOX17 levels at peak” value (hTS cells [3]; 2 hr, immunoblotting) was 1.5 fold, the “intensity of Mixl1, nadir lower than the native one” value (hTS cells [3]; 4 hr, TissueFAX analysis) was roughly 50% and the “MIXL1 levels, nadir lower than the native one” value (hTS cells [3]; 4 hr, immunoblotting) was roughly 50%. For the same compound, the DE formation (hTS cells [3]; 8 hr induction) was “efficiently yield DE; also recorded: rapidly differentiate hTS cells to DE stage”, the FOXA2 highest levels (hTS cells [3]; 8 hr, immunoblotting) was 3 fold and the “activation of the PI3K/AKT1/CREB1 signaling pathway” value [4] was “induces activation”. The “time of peak miR-124a expression” value (miR-124a) was 4 h.
